SMILES strings stand for the structures. Where a name gives a salt, the structure may show the parent alone. Read-outs that look alike come from different tables or passages of the source.

For one test, the system named is IL-23 (p19/p40). The test is described as follows: IL23-p19 ELISA, Dendritic, LPS (compound screening using DC cells). The test is classed as cell-based, Human. The note with it: PBMC-derived DC cells, IFNγ primed, LPS 1 μg/ml, 18 hours, 10 pt, read-out: IL23-p19 ELISA, Dendritic, LPS, 10 pt, EC50. In a few lines: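 IL-23 in supernatants quantified by sandwich ELISA (anti-p19 capture, biotinylated anti-p40 detection, chemiluminescent readout) after 18 h LPS (1 μg/ml) stimulation. Cells were monocyte-derived DCs (GM-CSF/IL-4, 7 d), IFNγ-primed 24 h and given compound 1 h before LPS; viability by CellTiter Glo.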

In a further test the test system is IL-23p19. In words: LPS induced IL23p19 in THP-1 cells (with IFNγ primed) assay. The test is classed as cell-based, Human. The note with it: THP-1 cells, IFNγ primed, LPS 1 ug/mL, 18 hours, 10 pt, read-out: IL23-p19 ELISA, THP1-IFNy, LPS, 10 pt EC50. In a few lines:
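Readout is secreted IL-23p19, quantified by chemiluminescent sandwich ELISA after 18 h LPS (1 ug/mL) stimulation of THP-1 cells that had been IFNγ-primed (50 ng/mL, ~18 h) and given compound 1 h beforehand at 37 °C. EC50 derived by curve fit; cytotoxicity tracked with Cell Titer Glo.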
Background: ELISA stands for enzyme-linked immunosorbent assay.

As a reminder, the EC50 is the concentration at which the effect is half-maximal. Consider `COCCOCCn1cc(NC(=O)c2ccc(-c3cn[nH]c3)o2)c(-c2nccs2)n1` [Compound I-64, N-(1-(2-(2-methoxyethoxy)ethyl)-3-(thiazol-2-yl)-1H-pyrazol-4-yl)-5-(1H-pyrazol-4-yl)furan-2-carboxamide], for which the concentration giving a half-maximal response (EC50) was 366 nM with IL-23 (p19/p40) (Homo sapiens, 18 h) and 77.7 nM in the test on IL-23p19 (Homo sapiens, THP-1, 18 h).
In the same order, the values of `COc1ccc(-c2nn(C)cc2NC(=O)c2ccc(-c3cn[nH]c3)o2)nc1` [Compound I-109, N-(3-(5-methoxypyridin-2-yl)-1-methyl-1H-pyrazol-4-yl)-5-(1H-pyrazol-4-yl)furan-2-carboxamide] are 22.1 nM and 104 nM.
Turning to `CC(C)(C)OC(=O)N1CC(n2cc(NC(=O)c3ccc(-c4cn[nH]c4)o3)c(-c3ccccn3)n2)C1` [Compound I-70, tert-Butyl-3-[4-{5-(1H-pyrazole-4-yl)furan-2-carboxamido}-3-(pyridine-2-yl)-1H-pyrazol-1-yl]azetidine-1-carboxylate, formate salt], the figures for the EC50 in the test with IL-23 (p19/p40) (formate salt) and in the test on IL-23p19 (formate salt) were 28.3 nM and 366 nM, respectively.
With `CN1CCN(CCn2cc(NC(=O)c3csc(-c4cn[nH]c4)n3)c(-c3ccccn3)n2)CC1` [II-61, N-(1-(2-(4-methylpiperazin-1-yl)ethyl)-3-(pyridin-2-yl)-1H-pyrazol-4-yl)-2-(1H-pyrazol-4-yl)thiazole-4-carboxamide], the EC50 in the test with IL-23 (p19/p40) (Homo sapiens, 18 h) amounted to 50.4 nM; in the test on IL-23p19 (Homo sapiens, THP-1, 18 h) it was 22.5 nM.
Regarding `COCCOCCn1cc(NC(=O)c2ccc(-c3c[nH]nc3C)o2)c(-c2ccccn2)n1` [Compound I-18, N-(1-(2-(2-methoxyethoxy)ethyl)-3-(pyridin-2-yl)-1H-pyrazol-4-yl)-5-(3-methyl-1H-pyrazol-4-yl)furan-2-carboxamide], the EC50 in the test with IL-23 (p19/p40) (Homo sapiens, 18 h) stood at 1200 nM; with IL-23p19 (Homo sapiens, THP-1, 18 h) it was 514 nM.
Take `COCCn1cc(NC(=O)c2ccc(-c3c[nH]nc3C)o2)c(-c2ccccn2)n1` [Compound I-6, N-(1-(2-methoxyethyl)-3-(pyridin-2-yl)-1H-pyrazol-4-yl)-5-(3-methyl-1H-pyrazol-4-yl)furan-2-carboxamide formic acid]: the EC50 with IL-23 (p19/p40) (formic acid) is 993 nM; in the test on IL-23p19 (Homo sapiens, THP-1, 18 h), 264 nM.
In the case of `CCO[C@H]1C[C@@H](n2cc(NC(=O)c3csc(-c4cnn(COCC[Si](C)(C)C)c4F)n3)c(-c3ccccn3)n2)C1` [II-71, N-(1-((1s,3s)-3-ethoxycyclobutyl)-3-(pyridin-2-yl)-1H-pyrazol-4-yl)-2-(5-fluoro-1-((2-(trimethylsilyl)ethoxy)methyl)-1H-pyrazol-4-yl)thiazole-4-carboxamide], the 50% effective concentration (EC50) was determined as 10400 nM with IL-23 (p19/p40) (Homo sapiens, 18 h) and 49600 nM with IL-23p19 (Homo sapiens, THP-1, 18 h).
In the same order, the values of `O=C(Nc1cn(CCOCC(F)(F)F)nc1-c1ccccn1)c1coc(-c2cc[nH]n2)n1` [III-7, 2-(1H-pyrazol-3-yl)-N-(3-(pyridin-2-yl)-1-(2-(2,2,2-trifluoroethoxy)ethyl)-1H-pyrazol-4-yl)oxazole-4-carboxamide] are 451 nM and 85.3 nM.
For the compound `CN(C)[C@H]1C[C@@H](n2cc(NC(=O)c3ccc(-c4cn[nH]c4)o3)c(-c3ccccn3)n2)C1` [Compound I-34, N-(1-((1s,3s)-3-(dimethylamino)cyclobutyl)-3-(pyridin-2-yl)-1H-pyrazol-4-yl)-5-(1H-pyrazol-4-yl)furan-2-carboxamide formate], the EC50 with IL-23 (p19/p40) (Homo sapiens, 18 h) came to 14.4 nM; with IL-23p19 (Homo sapiens, THP-1, 18 h), 13.8 nM.
On to `O=C(Nc1cn(Cc2ccccc2)nc1-c1ccccn1)c1csc(-c2cn[nH]c2)n1` [II-120, N-(1-benzyl-3-(pyridin-2-yl)-1H-pyrazol-4-yl)-2-(1H-pyrazol-4-yl)thiazole-4-carboxamide], for which the EC50 in the test with IL-23 (p19/p40) (Homo sapiens, 18 h) worked out at 1170 nM; in the test on IL-23p19 (Homo sapiens, THP-1, 18 h), 664 nM.
In the same order, the values of `CCOCCn1cc(NC(=O)c2ccc(-c3c[nH]nc3C(F)(F)F)o2)c(-c2ccccn2)n1` [Compound I-41, N-(1-(2-ethoxyethyl)-3-(pyridin-2-yl)-1H-pyrazol-4-yl)-5-(3-(trifluoromethyl)-1H-pyrazol-4-yl)furan-2-carboxamide formate] are 3940 nM and 2570 nM.
With `CC(OC(=O)C(C)C)OC(=O)n1cc(-c2nc(C(=O)Nc3cn(C)nc3-c3ccccn3)cs2)cn1` (stereo not shown) [II-2, 1-(isobutyryloxy)ethyl 4-(4-((1-methyl-3-(pyridin-2-yl)-1H-pyrazol-4-yl)carbamoyl)thiazol-2-yl)-1H-pyrazole-1-carboxylate], the EC50 with IL-23 (p19/p40) (Homo sapiens, 18 h) is 298 nM; in the test on IL-23p19 (Homo sapiens, THP-1, 18 h), 196 nM.
Taken in the same sequence, the figures for `Cc1oc(=O)oc1Cn1cc(-c2nc(C(=O)Nc3cn(C)nc3-c3ccccn3)cs2)cn1` [II-4, 2-(1-((5-methyl-2-oxo-1,3-dioxol-4-yl)methyl)-1H-pyrazol-4-yl)-N-(1-methyl-3-(pyridin-2-yl)-1H-pyrazol-4-yl)thiazole-4-carboxamide] were 307 nM and 86.1 nM.
In the same order, the values of `CCO[C@H]1C[C@@H](n2cc(NC(=O)c3ccc(-c4cn[nH]c4)o3)c(-c3nccs3)n2)C1` [Compound I-62, N-(1-((1s,3s)-3-ethoxycyclobutyl)-3-(thiazol-2-yl)-1H-pyrazol-4-yl)-5-(1H-pyrazol-4-yl)furan-2-carboxamide formate] are 115 nM and 48.1 nM.
Taken in the same sequence, the figures for `COCCn1cc(NC(=O)c2csc(-c3c[nH]nc3C)n2)c(-c2ccccn2)n1` [II-29, N-(1-(2-methoxyethyl)-3-(pyridin-2-yl)-1H-pyrazol-4-yl)-2-(3-methyl-1H-pyrazol-4-yl)thiazole-4-carboxamide, formic acid salt] were 248 nM and 135 nM.
In the case of `O=C(Nc1cn([C@H]2C[C@@H](OCC(F)(F)F)C2)nc1-c1ccccn1)c1csc(-c2cn[nH]c2)n1` [II-161, 2-(1H-pyrazol-4-yl)-N-(3-(pyridin-2-yl)-1-((cis)-3-(2,2,2-trifluoroethoxy)cyclobutyl)-1H-pyrazol-4-yl)thiazole-4-carboxamide], the EC50 stood at 482 nM in the test with IL-23 (p19/p40) (Homo sapiens, 18 h) and 112 nM in the test on IL-23p19 (Homo sapiens, THP-1, 18 h).
Taken in the same sequence, the figures for `O=C(Nc1cn(C(F)F)nc1-c1ccccn1)c1csc(-c2c[nH]nc2C(F)(F)F)n1` [II-95, N-(1-(difluoromethyl)-3-(pyridin-2-yl)-1H-pyrazol-4-yl)-2-(3-(trifluoromethyl)-1H-pyrazol-4-yl)thiazole-4-carboxamide] were 6220 nM and 2250 nM.
In the same order, the values of `O=C(Nc1cn(C2CNC2)nc1-c1ccccn1)c1csc(-c2cn[nH]c2)n1` [II-55, N-{1-(Azetidin-3-yl)-3-(pyridine-2-yl)-1H-pyrazol-4-yl}-2-(1H-pyrazol-4-yl)thiazole-4-carboxamide] are 43.5 nM and 74.9 nM.
Regarding `O=C(Nc1cn(C2CCOC2)nc1-c1nccs1)c1ccc(-c2cn[nH]c2)o1` (stereo not shown) [Compound I-120, 5-(1H-pyrazol-4-yl)-N-(1-(tetrahydrofuran-3-yl)-3-(thiazol-2-yl)-1H-pyrazol-4-yl)furan-2-carboxamide formate], the EC50 came out at 94.8 nM in the test on IL-23 (p19/p40) (Homo sapiens, 18 h) and 52.8 nM in the test with IL-23p19 (Homo sapiens, THP-1, 18 h).
On to `CCOCCn1cc(NC(=O)c2csc(-c3cn[nH]c3C(F)(F)F)n2)c(-c2ccccn2)n1` [II-19, N-(1-(2-ethoxyethyl)-3-(pyridin-2-yl)-1H-pyrazol-4-yl)-2-(5-(trifluoromethyl)-1H-pyrazol-4-yl)thiazole-4-carboxamide, formic acid salt], for which the EC50 amounted to 3510 nM with IL-23 (p19/p40) (Homo sapiens, 18 h) and 4010 nM with IL-23p19 (Homo sapiens, THP-1, 18 h).
Take `CCOCCn1cc(NC(=O)c2ccc(-c3cn[nH]c3)o2)c(-c2nccs2)n1` [Compound I-119, N-(1-(2-ethoxyethyl)-3-(thiazol-2-yl)-1H-pyrazol-4-yl)-5-(1H-pyrazol-4-yl)furan-2-carboxamide]: the half-maximal effective concentration (EC50) in the test with IL-23 (p19/p40) was 430 nM; in the test with IL-23p19, 154 nM.
On to `COCCn1cc(NC(=O)c2ccc(-c3cn[nH]c3)o2)c(-c2ncccn2)n1` [Compound I-7, N-(1-(2-methoxyethyl)-3-(pyrimidin-2-yl)-1H-pyrazol-4-yl)-5-(1H-pyrazol-4-yl)furan-2-carboxamide], for which the EC50 in the test with IL-23 (p19/p40) (Homo sapiens, 18 h) was found to be 399 nM; in the test with IL-23p19 (Homo sapiens, THP-1, 18 h), 433 nM.
Take `CCOCCn1cc(NC(=O)c2ccc(-c3cnn(C(=O)OC(C)(C)C)c3)o2)c(-c2ccccn2)n1` [Compound I-4, tert-butyl 4-(5-((1-(2-ethoxyethyl)-3-(pyridin-2-yl)-1H-pyrazol-4-yl)carbamoyl)furan-2-yl)-1H-pyrazole-1-carboxylate]: the half-maximal effective concentration (EC50) in the test with IL-23 (p19/p40) (Homo sapiens, 18 h) was 619 nM; with IL-23p19 (Homo sapiens, THP-1, 18 h), 713 nM.

The values above are taken from patent US10208074B2, “Pyrazole compounds and method for making and using the compounds” (Rigel Pharmaceuticals, Inc., priority 2015, dated 2019).
